Test results published in patent US10047050B2, “3,4-di-substituted pyridine compound, methods of using and compositions comprising the same” (ARDEA BIOSCIENCES, INC., priority 2011, dated 2018).
Where “and” joins values, the source holds several entries; their conditions need not be identical. Identical values can stand only once.

Test system: serum uric acid
Experiment: Multi-dose Phase I clinical trial, serum uric acid (sUA), once daily for 10 days
Assay type: in vivo, human
Conditions: for Absolute sUA concentration: individual subjects 4-12; for Absolute sUA concentration, Mean (4-10): mean of subjects 4-10
Source text: A Phase 1, Randomized, Double-Blind, Placebo-Controlled Study to Evaluate Safety, Tolerability, Pharmacokinetics and Preliminary Food Effect of Multiple Rising Doses of a URAT1 Inhibitor, in Healthy Adult Male Volunteers.
Fasted subjects receive oral doses of active or placebo, once daily, for 10 days, at the following doses:
36 subjects in 3 dose groups, 12 subjects/group, are randomized […] to receive active (9/group) or placebo ([…]). All study procedures are the same regardless of whether subject receives active or placebo. Total duration of subject participation, including screening period, is ˜2-4 weeks, and the total volume of blood collected from each subject during the entire study <500 mL, (less than typically collected during a volunteer blood donation).
5 mg, active and placebo, tablets packaged in 35 count HDPE bottles, stored at controlled room temperature (15-30° C.). Placebo tablets are designed to match the active tablets—identical size, form, taste, and color, and containing the same excipients. 1 mg doses were administered as oral solutions.
Subjects dosed in the morning of Days 1-10 with ˜240 mL of room temp water.
Urine, serum and plasma samples collected periodically
PD samples frozen (−20° C.) and stored; all samples from a given subject assayed in a single analytical run.

[1] = group 7, 1 mg once daily for 10 days, Time 192, mean of subjects 4-12
[2] = group 7, 1 mg once daily for 10 days, Time 216, mean of subjects 4-12
[3] = group 7, 1 mg once daily for 10 days, Time 222 (post dosing), mean of subjects 4-12
[4] = group 7, 1 mg once daily for 10 days, Time 228 (post dosing), mean of subjects 4-12
[5] = group 7, 1 mg once daily for 10 days, Time 240 (post dosing), mean of subjects 4-12
[6] = group 7, 1 mg once daily for 10 days, Time 246 (post dosing), mean of subjects 4-12
[7] = group 7, 1 mg once daily for 10 days, Time 252 (post dosing), mean of subjects 4-12
[8] = group 7, 1 mg once daily for 10 days, Time 264 (post dosing), mean of subjects 4-12
[9] = group 7, 1 mg once daily for 10 days, Time 270 (post dosing), mean of subjects 4-12
[10] = group 7, 1 mg once daily for 10 days, Time 288 (post dosing), mean of subjects 4-12
[11] = group 7, 1 mg once daily for 10 days, Time 312 (post dosing), mean of subjects 4-12

## CC(C)(Sc1ccncc1-c1ccc(C#N)c2ccccc12)C(=O)O [2-((3-(4-cyanonaphthalen-1-yl)pyridin-4-yl)thio)-2-methylpropanoic acid]
Group 7, 1 mg once daily for 10 days, Time 168, mean of subjects 4-12
  Absolute sUA concentration, Mean (4-12): 6.1 mg/dL
Group 7, 1 mg once daily for 10 days, Time 192
  Absolute sUA concentration: 4.6 mg/dL and 5.0 mg/dL and 4.9 mg/dL and 6.5 mg/dL and 6.1 mg/dL and 5.9 mg/dL and 5.6 mg/dL and 5.1 mg/dL and 5.5 mg/dL
[1]
  % sUA change (from baseline), Mean (4-12): −11.4%
  Absolute sUA concentration, Mean (4-12): 5.5 mg/dL
Group 7, 1 mg once daily for 10 days, Time 216
  Absolute sUA concentration: 4.7 mg/dL (2×) and 4.9 mg/dL (2×) and 6.1 mg/dL and 5.8 mg/dL and 5.3 mg/dL and 5.6 mg/dL and 5.9 mg/dL
[2]
  % sUA change (from baseline), Mean (4-12): −13.6%
  Absolute sUA concentration, Mean (4-12): 5.3 mg/dL
Group 7, 1 mg once daily for 10 days, Time 222 (post dosing)
  Absolute sUA concentration: 4.7 mg/dL and 5.2 mg/dL and 4.9 mg/dL and 6.3 mg/dL and 5.9 mg/dL and 5.8 mg/dL and 5.4 mg/dL and 5.0 mg/dL and 5.5 mg/dL
[3]
  % sUA change (from baseline), Mean (4-12): −12.2%
  Absolute sUA concentration, Mean (4-12): 5.4 mg/dL
Group 7, 1 mg once daily for 10 days, Time 228 (post dosing)
  Absolute sUA concentration: 4.3 mg/dL and 4.8 mg/dL (2×) and 4.9 mg/dL and 6.2 mg/dL and 5.6 mg/dL and 5.5 mg/dL and 5.3 mg/dL and 5.4 mg/dL
[4]
  % sUA change (from baseline), Mean (4-12): −15.6%
  Absolute sUA concentration, Mean (4-12): 5.2 mg/dL
Group 7, 1 mg once daily for 10 days, Time 240 (post dosing)
  Absolute sUA concentration: 4.8 mg/dL and 5.5 mg/dL and 5.3 mg/dL and 6.9 mg/dL and 6.2 mg/dL (2×) and 5.9 mg/dL and 5.2 mg/dL and 6.0 mg/dL
[5]
  % sUA change (from baseline), Mean (4-12): −6.3%
  Absolute sUA concentration, Mean (4-12): 5.8 mg/dL
Group 7, 1 mg once daily for 10 days, Time 246 (post dosing)
  Absolute sUA concentration: 4.4 mg/dL
[6]
  % sUA change (from baseline), Mean (4-12): −13.2%
  Absolute sUA concentration, Mean (4-12): 5.4 mg/dL
[7]
  % sUA change (from baseline), Mean (4-12): −10.6%
  Absolute sUA concentration, Mean (4-12): 5.5 mg/dL
[8]
  % sUA change (from baseline), Mean (4-12): −10.3%
  Absolute sUA concentration, Mean (4-12): 5.5 mg/dL
[9]
  % sUA change (from baseline), Mean (4-12): −17.4%
  Absolute sUA concentration, Mean (4-12): 5.1 mg/dL
[10]
  % sUA change (from baseline), Mean (4-12): −19.8%
  Absolute sUA concentration, Mean (4-12): 5.0 mg/dL
[11]
  % sUA change (from baseline), Mean (4-12): −14.9%
  Absolute sUA concentration, Mean (4-12): 5.3 mg/dL
Group 8, 5 mg once daily for 10 days, Time 0, mean of active subjects
  % sUA change (from baseline), Mean (4-12): 0%
Group 8, 5 mg once daily for 10 days, Time 0
  Absolute sUA concentration, Mean (4-10): 5.9 mg/dL
Group 8, 5 mg once daily for 10 days, Time 6, mean of active subjects
  % sUA change (from baseline), Mean (4-12): −20.5%
Group 8, 5 mg once daily for 10 days, Time 6
  Absolute sUA concentration, Mean (4-10): 4.7 mg/dL
Group 8, 5 mg once daily for 10 days, Time 12, mean of active subjects
  % sUA change (from baseline), Mean (4-12): −25.6%
Group 8, 5 mg once daily for 10 days, Time 12
  Absolute sUA concentration, Mean (4-10): 4.4 mg/dL
Group 8, 5 mg once daily for 10 days, Time 24, mean of active subjects
  % sUA change (from baseline), Mean (4-12): −21.1%
Group 8, 5 mg once daily for 10 days, Time 24
  Absolute sUA concentration, Mean (4-10): 4.7 mg/dL
Group 8, 5 mg once daily for 10 days, Time 48, mean of active subjects
  % sUA change (from baseline), Mean (4-12): −30.9%
Group 8, 5 mg once daily for 10 days, Time 48
  Absolute sUA concentration, Mean (4-10): 4.1 mg/dL
Group 8, 5 mg once daily for 10 days, Time 72, mean of active subjects
  % sUA change (from baseline), Mean (4-12): −33.7%
Group 8, 5 mg once daily for 10 days, Time 72
  Absolute sUA concentration, Mean (4-10): 3.9 mg/dL
Group 8, 5 mg once daily for 10 days, Time 96, mean of active subjects
  % sUA change (from baseline), Mean (4-12): −30.4%
Group 8, 5 mg once daily for 10 days, Time 96
  Absolute sUA concentration, Mean (4-10): 4.1 mg/dL
Group 8, 5 mg once daily for 10 days, Time 102, mean of active subjects
  % sUA change (from baseline), Mean (4-12): −37.8%
Group 8, 5 mg once daily for 10 days, Time 102
  Absolute sUA concentration, Mean (4-10): 3.7 mg/dL
Group 8, 5 mg once daily for 10 days, Time 108, mean of active subjects
  % sUA change (from baseline), Mean (4-12): −40.2%
Group 8, 5 mg once daily for 10 days, Time 108
  Absolute sUA concentration, Mean (4-10): 3.5 mg/dL
Group 8, 5 mg once daily for 10 days, Time 120, mean of active subjects
  % sUA change (from baseline), Mean (4-12): −30%
Group 8, 5 mg once daily for 10 days, Time 120
  Absolute sUA concentration, Mean (4-10): 4.1 mg/dL
Group 8, 5 mg once daily for 10 days, Time 144, mean of active subjects
  % sUA change (from baseline), Mean (4-12): −35.2%
Group 8, 5 mg once daily for 10 days, Time 144
  Absolute sUA concentration, Mean (4-10): 3.8 mg/dL
Group 8, 5 mg once daily for 10 days, Time 168, mean of active subjects
  % sUA change (from baseline), Mean (4-12): −38.1%
Group 8, 5 mg once daily for 10 days, Time 168
  Absolute sUA concentration, Mean (4-10): 3.6 mg/dL
Group 8, 5 mg once daily for 10 days, Time 192, mean of active subjects
  % sUA change (from baseline), Mean (4-12): −35.7%
Group 8, 5 mg once daily for 10 days, Time 192
  Absolute sUA concentration, Mean (4-10): 3.8 mg/dL
Group 8, 5 mg once daily for 10 days, Time 216, mean of active subjects
  % sUA change (from baseline), Mean (4-12): −33.4%
Group 8, 5 mg once daily for 10 days, Time 216
  Absolute sUA concentration, Mean (4-10): 3.9 mg/dL
Group 8, 5 mg once daily for 10 days, Time 222 (post dosing), mean of active subjects
  % sUA change (from baseline), Mean (4-12): −39.6%
Group 8, 5 mg once daily for 10 days, Time 222 (post dosing)
  Absolute sUA concentration, Mean (4-10): 3.6 mg/dL
Group 8, 5 mg once daily for 10 days, Time 228 (post dosing), mean of active subjects
  % sUA change (from baseline), Mean (4-12): −41.4%
Group 8, 5 mg once daily for 10 days, Time 228 (post dosing)
  Absolute sUA concentration, Mean (4-10): 3.5 mg/dL
Group 8, 5 mg once daily for 10 days, Time 240 (post dosing), mean of active subjects
  % sUA change (from baseline), Mean (4-12): −31.2%
Group 8, 5 mg once daily for 10 days, Time 240 (post dosing)
  Absolute sUA concentration, Mean (4-10): 4.1 mg/dL
Group 8, 5 mg once daily for 10 days, Time 246 (post dosing), mean of active subjects
  % sUA change (from baseline), Mean (4-12): −35.8%
Group 8, 5 mg once daily for 10 days, Time 246 (post dosing)
  Absolute sUA concentration, Mean (4-10): 3.8 mg/dL
Group 8, 5 mg once daily for 10 days, Time 252 (post dosing), mean of active subjects
  % sUA change (from baseline), Mean (4-12): −39.1%
Group 8, 5 mg once daily for 10 days, Time 252 (post dosing)
  Absolute sUA concentration, Mean (4-10): 3.6 mg/dL
Group 8, 5 mg once daily for 10 days, Time 264 (post dosing), mean of active subjects
  % sUA change (from baseline), Mean (4-12): −31.9%
Group 8, 5 mg once daily for 10 days, Time 264 (post dosing)
  Absolute sUA concentration, Mean (4-10): 4.0 mg/dL
Group 8, 5 mg once daily for 10 days, Time 270 (post dosing), mean of active subjects
  % sUA change (from baseline), Mean (4-12): −22.9%
Group 8, 5 mg once daily for 10 days, Time 270 (post dosing)
  Absolute sUA concentration, Mean (4-10): 4.5 mg/dL
Group 8, 5 mg once daily for 10 days, Time 288 (post dosing), mean of active subjects
  % sUA change (from baseline), Mean (4-12): −24.8%
Group 8, 5 mg once daily for 10 days, Time 288 (post dosing)
  Absolute sUA concentration, Mean (4-10): 4.4 mg/dL
Group 8, 5 mg once daily for 10 days, Time 312 (post dosing), mean of active subjects
  % sUA change (from baseline), Mean (4-12): −13.7%
Group 8, 5 mg once daily for 10 days, Time 312 (post dosing)
  Absolute sUA concentration, Mean (4-10): 5.1 mg/dL
